pIC50: −log10 of the molar value. Like-named read-outs stand apart in the source and are kept apart here.
What was measured:
c-KIT kinase (uKIT) = c-KIT kinase (uKIT) (Homo sapiens (Human), UniProt P10721); test: Biochemical Assay for uKIT (coupled pyruvate kinase/lactate dehydrogenase assay); settings: Inhibition of biochemical activity of uKIT kinase; 1 mM ATP
Experimental: Biochemical Assay for uKIT
Activity of c-KIT kinase (SEQ. ID NO. 1 or SEQ. ID NO. 2) was determined spectroscopically using a coupled pyruvate kinase/lactate dehydrogenase assay that continuously monitors the ATP hydrolysis-dependent oxidation of NADH (e.g., Schindler et al. Science (2000) 289: 1938-1942). Assays were conducted in 384-well plates (100 μL final volume) using 16 nM (Decode, SEQ ID No. 1) or 4.36 nM (Signal Chem, SEQ. ID No. 2), 0.7 mg/mL PE4Y substrate, 1.5 units pyruvate kinase, 2.1 units lactate dehydrogenase, 1 mM phosphoenol pyruvate, 0.28 mM NADH and 1 mM ATP in assay buffer (100 mM Tris, pH 7.5, 15 mM MgCl2, 0.5 mM DTT, 0.1% octyl-glucoside, 0.002% (w/v) BSA, and 0.002% Triton X-100). Inhibition of KIT was measured by adding serial diluted test compound (final assay concentration of 1% DMSO). A decrease in absorption at 340 nm was monitored continuously for 6 h at 30° C. on a multi-mode microplate reader (BioTek). The reaction rate was calculated using the 2-3 h time frame. The reaction rate at each concentration of compound was converted to percent inhibition using controls (i.e., reaction with no test compound and reaction with a known inhibitor) and IC50 values were calculated using software routines in Prism (GraphPad software).

Ba/F3 KIT mutant cells = test: Ba/F3 mutant KIT Cell Proliferation Assays (resazurin); type: cell-based; settings: Mus musculus, BaF3
Experimental: Ba/F3 KIT Mutant Cell Line Transduction and Expansion
Several different KIT cDNA encoding various primary and secondary mutations were cloned into a pLV(Exp]-CMV>(cDNA):IRES:puro vector. These vectors were constructed and packaged by VectorBuilder.
Exponentially grown Ba/F3 cells (1×10^6 cells in 1 ml medium) were infected with 60 μl of viral suspension in a 6-well plate in the presence of mIL-3 (10 ng/ml) and polybrene (7.5 μg/ml) (Vector Builder) and incubated for 16 h. After 16 h, the cells were centrifuged, and viral supernatant was discarded. The cells were then re-suspended in fresh medium and allowed to recover for another day. After 72 h post infection, the cells were seeded with complete medium with mIL-3 and with 1 μg/ml puromycin added to medium for selection. After 48 h, cells without viral infection die, whereas successfully transduced cells were collected and changed to fresh medium with 5 ng/ml of IL-3. After a week or two with gradual withdrawal of mIL3 the cells that can continue to proliferate in the absence of mIL3 were exponentially expanded and were frozen down for banking.
Ba/F3 mutant KIT Cell Proliferation Assays
(§1) A serial dilution of test compound was dispensed into a 384-well black clear bottom plate (Corning, Corning, NY). Six hundred and twenty-five cells were added per well in 50 μL complete growth medium. Plates were incubated for 68 h at 37° C., 5% CO2, 95% humidity. At the end of the incubation period 10 μL of a 440 μM solution of resazurin (Sigma, St. Louis, MO) in PBS was added to each well and incubated for an additional 5 h at 37° C., 5% CO2, 95% humidity. Plates were read on a Synergy2 reader (Biotek, Winooski, VT) using an excitation of 540 nm and an emission of 600 nm. Data was analyzed using Prism software (Graphpad, San Diego, CA) to calculate IC50 values.

GIST 430 cells = test: GIST 430 Cell Proliferation Assay (resazurin); type: cell-based; settings: Homo sapiens; GIST430 cell proliferation
Experimental: GIST 430 Cell Proliferation Assay
as §1, with “a 96-well” for “a 384-well”, “NY). Five thousand” for “NY). Six hundred and twenty-five”, “in 200” for “in 50”, “for 115” for “for 68”, “at 37 degrees Celsius,” for “at 37° C.,”, “period 40” for “period 10”

[1] = Ba/F3 KIT exon11del-V654A mutant cell proliferation, read-out: exon11del-V654A IC50
[2] = Ba/F3 KIT AYdup-V654A mutant cell proliferation, read-out: AYdup-V654A IC50
[3] = Ba/F3 KIT exon11del-Y823D mutant cell proliferation, read-out: exon11del-Y823D IC50

Chain of c-KIT kinase (uKIT) (P10721 other isoform, or with tags, fused parts or gaps): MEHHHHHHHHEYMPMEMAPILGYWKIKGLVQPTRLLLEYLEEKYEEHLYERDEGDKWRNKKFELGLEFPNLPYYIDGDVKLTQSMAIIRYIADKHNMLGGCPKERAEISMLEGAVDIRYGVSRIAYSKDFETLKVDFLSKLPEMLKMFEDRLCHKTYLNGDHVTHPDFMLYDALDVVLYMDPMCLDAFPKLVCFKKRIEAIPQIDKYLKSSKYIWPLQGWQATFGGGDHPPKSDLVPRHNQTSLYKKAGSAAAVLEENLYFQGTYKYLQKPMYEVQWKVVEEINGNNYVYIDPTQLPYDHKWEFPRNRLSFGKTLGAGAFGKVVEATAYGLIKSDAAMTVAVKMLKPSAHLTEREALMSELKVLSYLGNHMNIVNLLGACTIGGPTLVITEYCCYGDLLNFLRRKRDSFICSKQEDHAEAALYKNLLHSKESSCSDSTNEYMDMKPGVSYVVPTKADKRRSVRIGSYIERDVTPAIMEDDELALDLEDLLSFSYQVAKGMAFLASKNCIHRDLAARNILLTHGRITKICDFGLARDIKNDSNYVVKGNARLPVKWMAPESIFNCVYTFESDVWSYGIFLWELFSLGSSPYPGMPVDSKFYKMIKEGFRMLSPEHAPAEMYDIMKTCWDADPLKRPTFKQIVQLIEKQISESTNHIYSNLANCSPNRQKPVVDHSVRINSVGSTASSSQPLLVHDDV

Compound | pIC50 (c-KIT kinase (uKIT)) | pIC50 (Ba/F3 KIT mutant cells; [1]) | pIC50 (Ba/F3 KIT mutant cells; [2]) | pIC50 (Ba/F3 KIT mutant cells; [3]) | pIC50 (Ba/F3 KIT mutant cells; Ba/F3 KIT AYdup mutant cell proliferation, read-out: AYdup IC50) | pIC50 (Ba/F3 KIT mutant cells; Ba/F3 KIT AYdup-D816G mutant cell proliferation, read-out: AYdup-D816G IC50) | pIC50 (GIST 430 cells)
CN(C)CCOc1cc(F)c2c(Nc3ccc(NC(=O)NCCC(C)(C)C#N)cc3)ncnc2c1 [Example 80] | < 6.00 | < 6.00 |  |  |  |  | 
COCCCc1ccc2c(Nc3ccc(NC(=O)CC(=O)NCC(C)(C)C)cc3)cnnc2c1 [Example 193] | 7.00 to 8.00 |  |  |  |  |  | 
COc1cc(F)c2c(Nc3ccc(NC(=O)NCCC(C)(C)F)cc3)ncnc2c1 [Example 203] | ≥ 8.00 | 7.00 to 8.00 | 7.00 to 8.00 | 7.00 to 8.00 |  |  | 
COCCOc1ccc2c(Nc3ccc(NC(=O)CC(=O)NCC(C)(C)C)cn3)ccnc2c1 [Example 205] | < 6.00 | < 6.00 | < 6.00 | < 6.00 |  |  | 
COCCOc1ccc2ncnc(Nc3ccc(NC(=O)CC(=O)NC4CCC4)cc3)c2c1F [Example 207] | 6.00 to 7.00 | < 6.00 | 6.00 to 7.00 | < 6.00 |  |  | 
COc1cc2ncnc(Nc3ccc(NC(=O)NCCC(C)(C)F)cc3)c2cc1OC [Example 209] | 7.00 to 8.00 | 6.00 to 7.00 | < 6.00 | < 6.00 |  |  | 
COCCOc1ccc2ncnc(Nc3ccc(NC(=O)NCCC(C)(C)OC)cc3)c2c1F [Example 215] | 7.00 to 8.00 | 6.00 to 7.00 | 6.00 to 7.00 | 6.00 to 7.00 |  |  | 
COCCOc1ccc2ncnc(Nc3ccc(NC(=O)CC(=O)NCC(C)(C)C)cc3)c2c1F [Example 217] | 6.00 to 7.00 | < 6.00 | 6.00 to 7.00 | < 6.00 |  |  | 
COc1cc2ncnc(Nc3ccc(NC(=O)NCCC(C)(C)C#N)cc3)c2cc1OC [Example 218] |  | < 6.00 | 6.00 to 7.00 | < 6.00 |  |  | 
COc1cc(F)c2c(Nc3ccc(NC(=O)NCCC(C)(C)C#N)cc3)ncnc2c1 [Example 219] | 7.00 to 8.00 | 7.00 to 8.00 | 7.00 to 8.00 | 7.00 to 8.00 |  |  | 
COCCOc1cc2ncnc(Nc3ccc(NC(=O)NCCC(C)(C)F)cc3)c2cc1OCCOC [Example 222] | 7.00 to 8.00 |  |  |  |  |  | 
COCCOc1ccc2c(Nc3ccc(NC(=O)CC(=O)NCC(C)(C)C)cc3)ccnc2c1 [Example 223] | 6.00 to 7.00 |  |  |  |  |  | 
COCCOc1ccc2c(Nc3ccc(NC(=O)NCCC(C)(C)C#N)cn3)ncnc2c1 [Example 226] | 6.00 to 7.00 |  |  |  |  |  | 
COCCOc1ccc2c(Nc3ccc(NC(=O)NCCC(C)(C)F)cn3)ncnc2c1 [Example 227] | 6.00 to 7.00 |  |  |  |  |  | 
COCCOc1ccc2c(Nc3ccc(NC(=O)NCCC(C)(C)OC)cn3)ncnc2c1 [Example 228] | 7.00 to 8.00 |  |  |  |  |  | 

Second part, led by results:

pIC50 (c-KIT kinase (uKIT)) | pIC50 (Ba/F3 KIT mutant cells; [1]) | pIC50 (Ba/F3 KIT mutant cells; [2]) | pIC50 (Ba/F3 KIT mutant cells; [3]) | pIC50 (Ba/F3 KIT mutant cells; Ba/F3 KIT AYdup mutant cell proliferation, read-out: AYdup IC50) | pIC50 (Ba/F3 KIT mutant cells; Ba/F3 KIT AYdup-D816G mutant cell proliferation, read-out: AYdup-D816G IC50) | Compound | pIC50 (GIST 430 cells)
7.00 to 8.00 | 6.00 to 7.00 | 6.00 to 7.00 |  |  |  | COCCOc1cc(F)c2c(Nc3ccc(NC(=O)CCC(=O)NC(C)C)cc3)ncnc2c1 [Example 87] | 
< 6.00 | 6.00 to 7.00 | < 6.00 | < 6.00 |  |  | COCCOc1cc(F)c2c(Nc3ccc(NC(=O)C(=O)NC(C)(C)C)cc3)ncnc2c1 [Example 134] | 
 | 7.00 to 8.00 | 7.00 to 8.00 | 7.00 to 8.00 | ≥ 8.00 | 7.00 to 8.00 | CC(C)(F)CCNC(=O)Nc1ccc(Nc2ncnc3cc(O[C@H]4CCOC4)cc(F)c23)cc1 [Example 160] | 7.00 to 8.00
 | < 6.00 | < 6.00 | 6.00 to 7.00 |  |  | CC(C)(F)CCNC(=O)Nc1ccc(Nc2ncnc3cc(O[C@@H]4CCOC4)cc(F)c23)cc1 [Example 180] | < 6.00
6.00 to 7.00 | < 6.00 | < 6.00 | < 6.00 |  |  | COCCOc1cc(F)c2c(Nc3ccc(NC(=O)CC(=O)N4[C@@H](C)COC[C@@H]4C)cc3)ncnc2c1 [Example 199] | 
6.00 to 7.00 | < 6.00 | < 6.00 | < 6.00 |  |  | COCCOc1ccc2ncnc(Nc3ccc(NC(=O)NCCC(C)(C)F)cc3)c2c1F [Example 200] | 
6.00 to 7.00 | < 6.00 | 6.00 to 7.00 | < 6.00 |  |  | COCCOc1ccc2ncnc(Nc3ccc(NC(=O)CC(=O)NC4CCCC4)cc3)c2c1F [Example 201] | 
7.00 to 8.00 | 7.00 to 8.00 | 7.00 to 8.00 | 7.00 to 8.00 |  |  | COc1cc(F)c2c(Nc3ccc(NC(=O)NCCC(C)(C)OC)cc3)ncnc2c1 [Example 202] | 
7.00 to 8.00 | 6.00 to 7.00 | 7.00 to 8.00 | 7.00 to 8.00 |  |  | COCCOc1cc(OC)c2c(Nc3ccc(NC(=O)CC(=O)NCC(C)(C)C)cc3)ncnc2c1 [Example 204] | 
6.00 to 7.00 | < 6.00 | 6.00 to 7.00 | < 6.00 |  |  | COc1cc2ncnc(Nc3ccc(NC(=O)CC(=O)NCC(C)(C)C)cc3)c2cc1OCCCN1CCOCC1 [Example 206] | 
< 6.00 | < 6.00 | < 6.00 | < 6.00 |  |  | COCCOc1ccc2ncnc(Nc3ccc(NC(=O)CC(=O)NC(C)(C)C)cc3)c2c1F [Example 208] | 
7.00 to 8.00 | < 6.00 | < 6.00 | < 6.00 |  |  | COc1cc2ncnc(Nc3ccc(NC(=O)NCCC(C)(C)OC)cc3)c2cc1OC [Example 210] | 
7.00 to 8.00 | 7.00 to 8.00 | 7.00 to 8.00 | 7.00 to 8.00 |  |  | COc1cc(F)c2c(Nc3ccc(NC(=O)CC(=O)NCC(C)(C)C)cc3)ncnc2c1 [Example 211] | 
 | < 6.00 | 6.00 to 7.00 | < 6.00 |  |  | COCCOc1cc(F)c2c(Nc3ccc(NC(=O)CC(=O)N4[C@H](C)COC[C@@H]4C)cc3)ncnc2c1 [Example 212] | 
7.00 to 8.00 | < 6.00 | 6.00 to 7.00 | < 6.00 |  |  | COc1cc2ncnc(Nc3ccc(NC(=O)CC(=O)NCC(C)(C)C)cc3)c2cc1OC [Example 213] | 
7.00 to 8.00 | 7.00 to 8.00 | 7.00 to 8.00 | 7.00 to 8.00 |  |  | COCCOc1cc(F)c2c(Nc3ccc(NC(=O)CC(=O)N4CCC[C@@H]4C(C)C)cc3)ncnc2c1 [Example 214] | 
7.00 to 8.00 | 6.00 to 7.00 | 6.00 to 7.00 | 6.00 to 7.00 |  |  | COCCOc1ccc2ncnc(Nc3ccc(NC(=O)NCCC(C)(C)C#N)cc3)c2c1F [Example 216] | 
≥ 8.00 | 6.00 to 7.00 | 6.00 to 7.00 | 7.00 to 8.00 |  |  | COCCOc1ccc2c(Nc3ccc(NC(=O)NCCC(C)(C)F)cc3)ncnc2c1 [Example 220] | 
7.00 to 8.00 | 6.00 to 7.00 | 7.00 to 8.00 | 6.00 to 7.00 |  |  | COCCOc1ccc2c(Nc3ccc(NC(=O)CC(=O)NCC(C)(C)C)cc3)ncnc2c1 [Example 221] | 
7.00 to 8.00 |  |  |  |  |  | CC(C)(F)CCNC(=O)Nc1ccc(Nc2ncnc3cc(OCC(=O)O)cc(F)c23)cc1 [Example 224] | 
≥ 8.00 |  |  |  |  |  | COCCOc1ccc2c(Nc3ccc(NC(=O)NCCC(C)(C)OC)cc3)ncnc2c1 [Example 225] | 
6.00 to 7.00 |  |  |  |  |  | COCCOc1ccc2c(Nc3ccc(NC(=O)CC(=O)NCC(C)(C)C)cn3)ncnc2c1 [Example 229] | 

From patent US20240116877A1, “KIT KINASE INHIBITORS AND METHODS OF USE THEREOF” (Deciphera Pharmaceuticals, LLC, priority 2021, published 2024)
